This note sets out measurements from patent US12421224B2 (BIOGEN MA INC., priority 2019, dated 2025).

Some results are limits rather than exact numbers.

As usually defined, the IC50 is the concentration that inhibits the measured activity by half.

This experiment concerns the target T1, Recombinant full length human OGA enzyme (Homo sapiens, UniProt O60502).
T1 construct: Recombinant full length human OGA enzyme; purchased Origene
T1 sequence (O60502 1-916): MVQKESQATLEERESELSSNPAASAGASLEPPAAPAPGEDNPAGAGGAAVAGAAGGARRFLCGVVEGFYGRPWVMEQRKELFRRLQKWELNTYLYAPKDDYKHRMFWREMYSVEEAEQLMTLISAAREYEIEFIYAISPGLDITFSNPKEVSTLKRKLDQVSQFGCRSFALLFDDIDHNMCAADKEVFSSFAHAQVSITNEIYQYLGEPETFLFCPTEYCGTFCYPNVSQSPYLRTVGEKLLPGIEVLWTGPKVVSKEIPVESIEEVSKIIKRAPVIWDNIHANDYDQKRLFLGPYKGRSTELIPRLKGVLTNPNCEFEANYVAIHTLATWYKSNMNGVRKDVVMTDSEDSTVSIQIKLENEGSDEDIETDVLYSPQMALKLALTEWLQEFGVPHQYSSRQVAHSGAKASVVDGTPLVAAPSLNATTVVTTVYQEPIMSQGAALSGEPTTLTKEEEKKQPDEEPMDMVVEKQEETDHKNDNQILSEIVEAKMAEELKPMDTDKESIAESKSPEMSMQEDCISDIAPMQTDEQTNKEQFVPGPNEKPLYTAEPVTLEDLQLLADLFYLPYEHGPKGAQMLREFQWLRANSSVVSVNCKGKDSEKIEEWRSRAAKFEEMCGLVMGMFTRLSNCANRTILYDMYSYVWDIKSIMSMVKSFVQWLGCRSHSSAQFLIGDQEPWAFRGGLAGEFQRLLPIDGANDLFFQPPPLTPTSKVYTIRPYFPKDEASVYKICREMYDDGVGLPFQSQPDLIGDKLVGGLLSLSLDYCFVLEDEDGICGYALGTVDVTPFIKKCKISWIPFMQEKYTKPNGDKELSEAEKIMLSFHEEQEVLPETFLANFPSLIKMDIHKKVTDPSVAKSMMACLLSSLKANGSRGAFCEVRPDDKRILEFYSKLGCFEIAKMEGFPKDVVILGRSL
In words: OGA Enzyme Inhibition Biochemical Assay. As to conditions: 1 nM OGA, 100 μM 4-MUGlcNAc (Km), pH 6.4, 90 minutes at room temperature, 10-point dose-response starting from 20 μM. How it is done:
OGA Enzyme Inhibition Biochemical Assay
Recombinant full length human OGA enzyme was purchased from Origene. 4-MUGlCNAc substrate was purchased from Sigma. All other reagents were purchased from Sigma or Fisher. Assay buffer consists of the Mcllvaine buffer system, pH 6.4 (0.2M Na2HPO4 mixed with 0.1M citric acid) and 0.01% BSA. Reactions consist of 1 nM OGA, 100 μM 4-MUGlcNAc (Km), and compound in a final volume of 10 μl. Reactions were incubated for 90 minutes at room temperature and quenched with […] of 3M glycine, pH 10 and read on a Perkin Elmer Envision plate reader (Ex: 355 nm/Em: 460 nm). Compounds were tested with a 10-point dose-response starting from 20 μM with a 4-fold dilution. Data was fit using GraphPad Prism using a 4-parameter fit with variable slope.
In the case of `CC(=O)Nc1ncc(CN2CC(Cc3ccccc3)C2)s1` [Example 4-2, N-(5-((3-benzylazetidin-1-yl)methyl)thiazol-2-yl)acetamide], the IC50 is 580 nM.
With `CC(=O)Nc1ncc(CN2CC(Oc3ncccc3C)C2)s1` [Example 2-4, N-(5-((3-((3-methylpyridin-2-yl)oxy)azetidin-1-yl)methyl)thiazol-2-yl)acetamide], the IC50 was > 20 nM.
Take `COc1cc(O[C@H]2CN(Cc3cnc(NC(C)=O)s3)[C@@H]2C)ncn1` [Example 2-27, N-(5-(((2R,3S)-3-((6-methoxypyrimidin-4-yl)oxy)-2-methylazetidin-1-yl)methyl)thiazol-2-yl)acetamide]: the IC50 was 600 nM.
As to `COc1cc(O[C@@H]2CN(Cc3cnc(NC(C)=O)s3)[C@@H]2C)ccn1` [Example 2-6, N-(5-(((2R,3R)-3-((2-methoxypyridin-4-yl)oxy)-2-methylazetidin-1-yl)methyl)thiazol-2-yl)acetamide], the concentration for half-maximal inhibition (IC50) amounted to 170 nM.
As to `CC(=O)Nc1ncc(CN2CC(COc3ccc(F)cn3)C2)s1` [Example 2-22, N-(5-((3-(((5-fluoropyridin-2-yl)oxy)methyl)azetidin-1-yl)methyl)thiazol-2-yl)acetamide], the 50% inhibitory concentration (IC50) is 1500 nM.
In the case of “N-(5-43-(((5-methyl-1,2,4-oxadiazol-3-yl)methyl)amino)azetidin-1-yl)methyl)thiazol-2-yl)acetamide [Example 3-3]”, the IC50 was 900 nM.
The figure for `CC(=O)Nc1ncc(CN2CC(Oc3ccc(C#N)cn3)C2)s1` [Example 2-5, N-(5-((3-((5-cyanopyridin-2-yl)oxy)azetidin-1-yl)methyl)thiazol-2-yl)acetamide] is 340 nM.
As for `COc1cc(COC2CN(Cc3cnc(NC(C)=O)s3)C2)ccn1` [Example 1-1, N-(5-((3-((2-methoxypyridin-4-yl)methoxy)azetidin-1-yl)methyl)thiazol-2-yl)acetamide], the IC50 was determined as 91 nM.
In the case of `CC(=O)Nc1ncc(CN2C[C@@H](Nc3ccc(F)cn3)[C@H]2C)s1` [Example 2-15, N-(5-(((2R,3R)-3-((5-fluoropyridin-2-yl)amino)-2-methylazetidin-1-yl)methyl)thiazol-2-yl)acetamide], the IC50 is 800 nM.
Consider `CC(=O)Nc1ncc(CN2CC(Oc3ncc(F)cn3)C2)s1` [Example 2-2], for which the IC50 amounted to 530 nM.
Regarding `CC(=O)Nc1ncc(CN2C[C@H](Nc3ccc(C#N)cn3)[C@H]2C)s1` [Example 2-19, N-(5-(((2R,3S)-3-((5-cyanopyridin-2-yl)amino)-2-methylazetidin-1-yl)methyl)thiazol-2-yl)acetamide], the IC50 was 25 nM.
As for `COc1cc(O[C@@H]2CN(Cc3cnc(NC(C)=O)s3)[C@@H]2C)ncn1` (single isomer, unassigned) [Example 2-10], the IC50 was found to be 600 nM.
For the compound `CC(=O)Nc1ncc(CN2C[C@H](Oc3ncc(F)cn3)[C@H]2C)s1` [Example 2-30, N-(5-(((2R,3S)-3-((5-fluoropyrimidin-2-yl)oxy)-2-methylazetidin-1-yl)methyl)thiazol-2-yl)acetamide], the IC50 came out at 170 nM.
As to `CC(=O)Nc1ncc(CN2CC(CNc3cc(C)nc(C)n3)C2)s1` [Example 2-26, N-(5-((3-(((2,6-dimethylpyrimidin-4-yl)amino)methyl)azetidin-1-yl)methyl)thiazol-2-yl)acetamide], the IC50 worked out at 1300 nM.
Take `COc1cc(N[C@@H]2CN(Cc3cnc(NC(C)=O)s3)[C@@H]2C)ccn1` [Example 2-16, N-(5-(((2R,3R)-3-((2-methoxypyridin-4-yl)amino)-2-methylazetidin-1-yl)methyl)thiazol-2-yl)acetamide]: the IC50 came to 570 nM.
Then `CC(=O)Nc1ncc(CN2C[C@@H](Oc3ncc(F)cn3)[C@H]2C)s1` [Example 2-29, N-(5-(((2R,3R)-3-((5-fluoropyrimidin-2-yl)oxy)-2-methylazetidin-1-yl)methyl)thiazol-2-yl)acetamide], with 570 nM.
Then `COc1cc(CNC2CN(Cc3cnc(NC(C)=O)s3)C2)ccn1` [Example 3-2, N-(5-((3-(((2-methoxypyridin-4-yl)methyl)amino)azetidin-1-yl)methyl)thiazol-2-yl)acetamide], with 210 nM.
`CC(=O)Nc1ncc(CN2CC(OCc3cc(C)nc(C)c3)C2)s1` [Example 1-2, N-(5-((3-((2,6-dimethylpyridin-4-yl)methoxy)azetidin-1-yl)methyl)thiazol-2-yl)acetamide]: the IC50 amounted to 480 nM.
As for `CC(=O)Nc1ncc(CN2CC(COc3cc(C)nc(C)c3)C2)s1` [Example 2-20, N-(5-((3-(((2,6-dimethylpyridin-4-yl)oxy)methyl)azetidin-1-yl)methyl)thiazol-2-yl)acetamide], the IC50 came to 480 nM.
For the compound `COc1cc(OCC2CN(Cc3cnc(NC(C)=O)s3)C2)ccn1` [Example 2-23, N-(5-((3-(((2-methoxypyridin-4-yl)oxy)methyl)azetidin-1-yl)methyl)thiazol-2-yl)acetamide], the IC50 is 670 nM.
As for `CC(=O)Nc1ncc(CN2CC(OCc3noc(C)n3)C2)s1` [Example 1-3, N-(5-((3-((5-methyl-1,2,4-oxadiazol-3-yl)methoxy)azetidin-1-yl)methyl)thiazol-2-yl)acetamide], the IC50 was determined as 220 nM.
As to `CC(=O)Nc1ncc(CN2CC(CNc3cc(C)nc(C)c3)C2)s1` [Example 2-24, N-(5-((3-(((2,6-dimethylpyridin-4-yl)amino)methyl)azetidin-1-yl)methyl)thiazol-2-yl)acetamide], the half-maximal inhibitory concentration (IC50) was found to be 1400 nM.
The figure for `CC(=O)Nc1ncc(CN2CC(c3ncc(F)cn3)C2)s1` [Example 5-1] is 350 nM.
`CC(=O)Nc1ncc(CN2CC(NCc3cc(C)nc(C)c3)C2)s1` [Example 3-1, N-(5-((3-(((2,6-dimethylpyridin-4-yl)methyl)amino)azetidin-1-yl)methyl)thiazol-2-yl)acetamide]: the IC50 was 91 nM.
Turning to `CC(=O)Nc1ncc(CN2C[C@H](Oc3ccc(C#N)cn3)[C@H]2C)s1` [Example 2-32, N-(5-(((2R,3S)-3-((5-cyanopyridin-2-yl)oxy)-2-methylazetidin-1-yl)methyl)thiazol-2-yl)acetamide], the IC50 is 980 nM.
As for `CC(=O)Nc1ncc(CN2C[C@@H](Oc3ccc(C#N)cn3)[C@H]2C)s1` [Example 2-31, N-(5-(((2R,3R)-3-((5-cyanopyridin-2-yl)oxy)-2-methylazetidin-1-yl)methyl)thiazol-2-yl)acetamide], the IC50 was 440 nM.
Then `COc1cc(O[C@@H]2CN(Cc3cnc(NC(C)=O)s3)[C@@H]2C)ncn1` [Example 2-28, N-(5-(((2R,3R)-3-((6-methoxypyrimidin-4-yl)oxy)-2-methylazetidin-1-yl)methyl)thiazol-2-yl)acetamide], with 110 nM; and `COc1cc(O[C@H]2CN(Cc3cnc(NC(C)=O)s3)[C@@H]2C)ccn1` [Example 2-7, N-(5-(((2R,3S)-3-((2-methoxypyridin-4-yl)oxy)-2-methylazetidin-1-yl)methyl)thiazol-2-yl)acetamide], with 210 nM.
With `CC(=O)Nc1ncc(CN2C[C@H](Oc3ncc(F)cn3)[C@H]2C)s1` [Example 2-33, N-(5-(((2R,3S)-3-((5-fluoropyrimidin-2-yl)oxy)-2-methylazetidin-1-yl)methyl)thiazol-2-yl)acetamide], the IC50 came out at 390 nM.
For the compound `COc1cc(NC2CN(Cc3cnc(NC(C)=O)s3)C2)ccn1` [Example 2-12, N-(5-((3-((2-methoxypyridin-4-yl)amino)azetidin-1-yl)methyl)thiazol-2-yl)acetamide], the concentration for half-maximal inhibition (IC50) was found to be 33 nM.
Then `COc1cc(OC2CN(Cc3cnc(NC(C)=O)s3)C2)ccn1` [Example 2-3, N-(5-((3-((2-methoxypyridin-4-yl)oxy)azetidin-1-yl)methyl)thiazol-2-yl)acetamide], with 160 nM; and `COc1cc(OC2CN(Cc3cnc(NC(C)=O)s3)C2)ncn1` [Example 2-1, N-(5-((3-((6-methoxypyrimidin-4-yl)oxy)azetidin-1-yl)methyl)thiazol-2-yl)acetamide], with 407 nM.
Then `CC(=O)Nc1ncc(CN2CC(Nc3ccc(C#N)cn3)C2)s1` [Example 2-13, N-(5-((3-((5-cyanopyridin-2-yl)amino)azetidin-1-yl)methyl)thiazol-2-yl)acetamide], with 59 nM.
